Results as given in US20230075937A1, “METHODS FOR STRENGTHENING AND REPAIRING HAIR” (Living Proof, Inc., priority 2021, published 2023).

Key:
Set-up in all cases: species or system human
[1] = Differential scanning calorimetry (DSC) of hair, denaturation temperature (Td); settings: for hair denaturation temperature: post-treatment pH 2, 5 min
Description: To explore treatment with PA and PA-GL, studies were performed using 3× bleached hair as a damaged hair model (each bleaching was done with a mixture of Bleaching powder (BW2) and 40V clear developer at 1:2 ratio, for 1 hour at room temperature). […] Differential scanning calorimetry (DSC) was performed on tresses at wet stage to determine the effect of phytic acid treatment on hair denaturation temperatures (Td). For wet stage DSC, a hair sample of 3-5 mg in 50 μL Deionized water sealed and equilibrated (overnight) in a stainless steel pressure resistant high-volume pan is heated from 25° C. to 180° C. at a 5 ° C./min heating rate. […] The heat damaged hair was prepared by subjecting virgin brown hair to 4 cycles of heat treatments. In each cycle, hair was treated with Deionized water (1 mL per 1.5 g of hair), massaged for 30 s followed by heat treatment (blow dry until dry at medium heat setting, flat iron at 450° F. for 10 strokes at a rate of 10 seconds per stroke from root to tip). At the end of 4 cycles of heat treatments, the hair tress is dialyzed overnight in Deionized water and air dried before DSC testing. The PA treatment on the heat damaged hair was performed using a 2 wt % PA aqueous solution at pH 4.5 for 30 min followed by blow dry. […] The heat protection benefit provided by PA using DSC was also explored, for which virgin hair with or without PA pre-treatment was subjected to 3 cycles of heat treatments. A virgin control sample was also added for comparison, which was prepared by treating the virgin brown hair with Deionized water (1 mL per 1.5 g of hair), massaged 30 seconds and air dried. For each heat treatment cycle, hair sample was blow dried until dry at medium heat setting, and flat ironed at 450° F. for 10 strokes at a rate of 10 seconds per stroke from root to tip. After three cycles of heat treatments, hair samples were dialyzed overnight in DI water and air dried before DSC testing. […] To explore strengthening benefits of PA in a hair care formulation, a PA formulation containing 0.75 wt % PA at pH 4-4.5 was used as an example. The 3× bleached hair was treated with 0.25 g of the PA formulation for 10 min followed by blow dry. Differential scanning calorimetry was performed on tresses to determine the effect of phytic acid treatment on hair denaturation temperatures (Td). […] The heat damaged hair was prepared by subjecting virgin brown hair to 4 cycles of heat treatments. In each cycle, hair was treated with Deionized water (1 mL per 1.5 g of hair), massaged for 30 s followed by heat treatment (blow dry until dry at medium heat setting, flat iron at 450° F. for 10 strokes at a rate of 10 seconds per stroke from root to tip). At the end of 4 cycles of the heat treatments, the hair tress is dialyzed overnight in Deionized water and air dried before DSC testing. […] Furthermore, the capability of PA formulation to protect hair from future chemical treatments (bleaching and coloring) was explored. In this study, two sets of treatments were performed and for each set three replicates were included. In Set I, a virgin tress was bleached once (1st bleach), followed by 12 cycles of shampoo and conditioner washes, then another bleach (2nd bleach). In Set II, similar bleaching and washing process was taken except that the tress was treated with PA formulation after the 1st bleach and 3rd, 6th, 9th, and 12th wash. In both bleaching steps, hair was treated with a mixture of BW2 bleaching powder and clear 30 V developer (1:1.5 ratio, 5 g per 1.5 g of hair) for 20 min under heat (high heat setting in a Belvedere hooded dryer), followed by 30 s water rinse and air dry at room temperature. The hair denaturation temperature (Td) was collected after each bleach treatment and every 3 washing cycles. […] Heat protection provided by the PA formulation using DSC was also explored. Here, three groups of hair samples were compared: virgin, heat control, and PA formulation treated. […]

[2] = Dia-Stron single fiber mechanical testing at wet stage
Description: Additionally, the strengthening benefits of PA and PA-GL blend treatments were confirmed by Dia-Stron single fiber mechanical testing at wet stage. For wet stage single fiber method, hair fibers (≥20 fibers per treatment) at 30 mm length are fixed by 2 brass crimps at the ends and mounted on a Dia-stron tray. Initial dimension measurements are collected using a Dia-Stron FDAS770 (double ended samples, sample size of 30 mm, no of slices of 5 under one rotation per slice), followed by equilibration in Deionized water for at least 2 h prior to testing. All fiber tensile measurements are performed using a Dia-Stron MTT686/MTT690 (under 100% extension at gauge force of 2N, break threshold of 5 g, rate of 20 mm/min, maximum force of 2000 gmf and premature failure threshold of 10% strain).

[3] = Differential wetting characterization (DWC), water contact angle
Description: In this method, a pair of hair fibers is mounted on an in-house built stage in a horizontal plane with a separation of ˜0.75 mm. A droplet of deionized water (1 μL) is then applied onto the fiber pair by using a micro syringe. The droplet is observed using a Nikon microscope under 5× magnification and the image is taken using the incorporated digital camera. In the image, the contact angles of the water droplet on the fiber pair are measured respectively using the Nikon Advance Research software. The relative surface hydrophobicity of the fiber pair is correlated to the resulting contact angles, of which the greater value indicates higher hydrophobicity. […]

[4] = Modified Lowry Protein Assay, hair protein loss
Description: In addition, surface repair benefits from the PA or PA-GL treatments were evaluated by a protein loss assay. It is known that hair cuticle damage after various chemical treatments such as bleaching and perming results in a higher protein loss. To quantify the protein loss before and after treatments, a Modified Lowry Protein Assay was employed. In this method, a Lowry assay (Pierce Modified Lowry Protein Assay Kit, working range is at 1-1500 μg/mL) followed by absorbance measurement using UV-Visible Spectrophotometer (λmax at 740-760 nm) is used to quantify hair protein loss for a sample size of 250 mg of hair in 4 mL of deionized water.

[5] = High humidity test, hair tress area change; settings: 3× bleached hair, 65% RH, vs untreated bleached hair
Description: In this method, hair tresses are exposed to high humidity at 65% RH at 25° C. for 30 min and the area of hair tresses before and after exposure to humidity is quantified using Image J application.

[6] = Relative hair diameter swelling by environmental scanning electron microscopy; settings: 3× bleached hair; 2 wt % PA pH 4-4.5, 30 min, blow dry; 10% to 95% RH
Description: All measurements were carried out using a FEI Quanta 200 FEG MKII scanning electron microscope, operating at 15 kV, with relative humidity ranging from 10% to 95%. Single source virgin brown hair was bleached three times to obtain a 3× bleached hair model (each bleaching was done with a mixture of bleaching powder (BW2) and 40V clear developer at 1:2 ratio for 1 hour at room temperature, followed by 30 s water rinse and air-dry at room temperature).

[7] = Fracture patterns of fibers broken in Dia-stron tensile testing; settings: 3× bleached hair; 2 wt % PA pH 4-4.5, 10 min, blow dry (virgin 34%, bleached 6%)
Description: Depending on the level of hair damage, hair fibers may break with very different fracture patterns when pulling to break. […] Fracture patterns of fibers broken from Dia-stron tensile testing were examined under optical microscope to understand the relationship between fracture pattern and hair damage level. […] In contrast, when the bleached hair was treated with a 2 wt % PA aqueous solution at pH 4-4.5 for 10 min, followed by blow dry, 38% smooth fractures were observed, close to that for virgin hair, indicating effective internal hair structure repair and complete restore by PA.
Hair fracture patterns of 3× bleached and PA formulation treated fibers after Dia-stron tensile testing were also examined and compared to those for virgin and bleached hair.

[8] = 3× bleached hair, 2 wt % solution, heat styling (blow dry or flatiron)
[9] = bleached hair, PA at 2, 5 or 15 wt % in Restore Repair Leave-In conditioner, flatiron
[10] = bleached hair, treatment pH 2 to 5, flatiron
[11] = colored hair, post-treatment, blow dry
[12] = more damaged model (2× bleached at 45° C.), 2 wt % PA pH 2, 1 hour

## O=P(O)(O)O[C@H]1[C@H](OP(=O)(O)O)[C@@H](OP(=O)(O)O)[C@H](OP(=O)(O)O)[C@@H](OP(=O)(O)O)[C@H]1OP(=O)(O)O [PA, phytic acid]
[1]; 3× bleached hair treated with 2 wt % PA aqueous solution
  Td after 10 shampoo and conditioner washing cycles: ≥ 149 °C
[1]; 3× bleached hair, 2 wt % aqueous solution pH 2, 15 min, heat styling, vs virgin hair
  hair denaturation temperature (Td): fully recovered to the virgin level
[1]; 3× bleached hair, PA at 2 wt % or higher concentration, vs virgin hair
  denaturation temperature: recovered back to or even beyond the virgin level
[1]; ATG-reduced hair, blow dry, vs virgin hair
  hair denaturation temperature: recovered to the level of virgin hair
[1]; colored 3× bleached hair, blow dry
  hair denaturation temperature: recovers to the level of the virgin hair
[1]; heat damaged hair (4 heat cycles), 2 wt % PA pH 4.5, 30 min, blow dry
  recovery in Td: 5 °C
[1]; treated after 1st bleach (Set II)
  immediate improvement in Td: 3 °C
[1]; treated after 1st bleach and 3rd, 6th, 9th, 12th wash, vs virgin level
  Td over 12 washing cycles and after 2nd bleach: remained above the virgin level
[1]; virgin hair treated before each heat treatment (flat iron 450° F.), heat control 7° C. decrease
  Td after 3 heating cycles: same Td as virgin hair
[1]; virgin hair with PA pre-treatment, heat protection
  change in Td upon 3 cycles of heat treatments: didn't show any significant change
[2]; [8]
  Young's modulus: greatly improved
  break stress: greatly improved
[2]; 3× bleached hair, PA 0.1 to 20 wt %, 15 min, heat styling
  PA concentration at which significant improvement in Young's modulus and break stress was achieved: ≥ 2 wt %
[2]; [9]
  Young's modulus: significant increases
  break stress: significant increases
[2]; [10]
  Young's modulus: greatly improved
  break stress: greatly improved
[2]; [11]
  Young's modulus: greatly improved
  break stress: greatly improved
[2]; [12]
  Young's modulus: greatly improved
  break stress: greatly improved
[3]; 3× bleached hair, vs untreated bleached hair
  increase in water contact angle: 5 °
[3]; ATG-reduced hair
  increase in water contact angle: 5 °
[3]; colored hair
  increase in water contact angle: 5 °
[4]; 3× bleached hair, vs untreated bleached hair (6.6 mg/g hair)
  reduction of protein loss: 27%
[4]; ATG-reduced hair (7.9 mg/g hair untreated)
  reduction of protein loss: 58%
[5]; 25° C., 30 min
  hair tress area increase: much less area increase
[5]
  difference in area increase after 7 shampoo and conditioner washing cycles: remained significant
[6]
  relative diameter swelling rate: greatly reduced, even lower than virgin hair
[7]
  smooth fractures: 38%
